From the NIST ThermoML archive (doi:10.1016/j.jct.2013.04.017) come the findings set out here.

Numbers after ± are expanded uncertainties.

For data set [1] the following is noted: 313.15 K; 101 kPa; Liquid; Sing-around technique in a fixed-path interferometer.
A short description of data set [2]: mn = molality of the nth substance listed, in mol/kg. Conditions: 313.15 K; 101 kPa; Liquid; fixed-path interferometer; m2 = 0.

`O` [water]: the speed of sound in data set [1] worked out at 1528.9 ± 1.1 m/s.
With `O` [water] + O=C(O)CC(O)(CC(=O)O)C(=O)O, the speed of sound in data set [2] is 1528.9 ± 1.1 m/s.
